Test results taken from US10980835B2, “Arsenic trioxide for treatment of PIN1-associated disorders” (Beth Israel Deaconess Medical Center, Inc., priority 2016, dated 2021).

Tests used:
Pin1 = target: T1, Pin1 (Homo sapiens, UniProt Q13526); assay: Pin1 protein levels in triple negative breast cancer cell lines by immunoblotting; format: cell-based; details: SUM159, Hs578T and MBA-MB-231 cells
T1 construct: followed by assaying Pin1 levels using immunoblotting; endogenous in cells; host or cells: SUM159, Hs578T, MDA-MB-231 (printed MBA-MB-231)
T1 sequence (Q13526 whole entry): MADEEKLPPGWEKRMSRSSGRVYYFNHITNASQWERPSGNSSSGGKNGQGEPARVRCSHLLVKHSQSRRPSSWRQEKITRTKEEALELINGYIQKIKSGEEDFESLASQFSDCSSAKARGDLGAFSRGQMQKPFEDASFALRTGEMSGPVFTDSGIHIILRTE
Description: FIG. 5 is a series of western blots and corresponding graphs of quantified protein expression depicting arsenic trioxide-induce Pin1 degradation in triple-negative breast cancer cell lines (SUM159, Hs578T, and MBA-MB-231).
FIG. 7 is a series of western blots and corresponding graphs of quantified protein expression levels showing that, in triple-negative breast cancer cell lines (SUM159 and Hs578T), arsenic trioxide-induced Pin1 degradation is blocked by the proteasome inhibitor, MG132.
FIG. 8 is a series of western blots and corresponding graphs of quantified protein expression levels showing that all-trans retinoic acid (ATRA) induces Pin1 degradation in triple-negative breast cancer cell lines (SUM159, Hs578T, and MBA-MB-231).
FIG. 9 is a series of western blots and corresponding graphs of quantified protein expression levels depicting decrease in Pin1 protein expression in triple-negative breast cancer cells (SUM159, Hs578T, and MBA-MB-231) following combination treatment with ATO and ATRA, as compared to treatment with either ATO or ATRA, alone. […]
Two different human triple negative breast cancer cell lines (SUM159 and Hs578T) were treated with different concentrations of ATO in the presence of the proteasome inhibitor MG132 or vehicle control DMSO. […] cells were collected and lysed and levels of Pin1 protein expression were quantified by immunoblotting. […]

[1] = tested on: Human triple negative breast cancer MBA-MB-231 cells; assay: Mouse orthotopic implantation model with MBA-MB-231 cells; format: in vivo; details: nude mice, ATO 2 mg/kg every other day, ATRA 5 mg 21 day pellets, 6 weeks
Description: FIG. 17A is a graph showing that combination treatment with ATRA and ATO results in greater tumor growth inhibition than treatment with either ATRA or ATO, alone. FIG. 17B is image of the excised tumors corresponding to FIG. 17A. FIG. 17C is a graph depicting tumor volume corresponding to the tumors pictured in FIG. 17B.
Human triple negative breast cancer MBA-MB-231 cells were orthotopically implanted into nude mice. A week after tumor growth was notable, mice were randomly grouped and treated with either ATO (2 mg/kg every other day), ATRA (5 mg 21 day slow releasing pellets), or a combination of both ATO (2 mg/kg every other day) and ATRA (5 mg 21 day slow releasing pellets). Tumor growth was measured weekly for 6 weeks.

231 and 159 cells = assay: FACS of breast TIC-enriched CD24-CD44+ or ALDH+ population; format: cell-based, human
Method: (§1) To examine the effects of ATO and ATRA on TICs in TNBC, 231 and 159 cells were treated with ATO (1 μM), ATRA (10 μM) or their combination, followed by assaying the breast TIC-enriched CD24-CD44+ or ALDH+ population using fluorescence-activated cell sorting (FACS). […] To examine the effects of ATO and ATRA on self-renewal of breast TICs, different TNBC cells were treated with ATO, ATRA or their combination, followed by a serial mammosphere formation assay.

[2] = tested on: MDA-MB-231 breast cancer cell line; assay: Intracellular arsenic levels by ICP-Masspec; format: cell-based, human; details: MDA-MB-231 cells treated with ATRA, relative to control
Method: FIGS. 16A-C are a series of graphs showing that ATRA increases intracellular arsenic concentration measured by ICP-Masspec.
Intracellular arsenic levels were measured by ICP-Masspec in breast cancer cells lines treated with either ATRA, shRNA knockdown of AQP9, or overexpression of AQP9.

[3] = tested on: TNBC 231 and 159 cells (breast TICs); assay: Serial mammosphere formation assay; format: cell-based, human; details: serial propagation M1-M4
Method: FIG. 22C is a graph showing that ATO and ATRA co-treatment dramatically reduces tumor growth.
as §1
Breast TICs are notoriously resistant to cytotoxic chemotherapy drugs such as taxol, which is commonly used to treat TNBC. While taxol treatment kills non-TIC cancer cells, it is ineffective against TICs, leading to TIC-enriched taxol-resistant cells. […] Thus, the combination of ATO and ATRA inhibits the growth of taxol-resistant TNBCs. This raised the question of whether the combination of ATO and ATRA could inhibit tumor initiation and growth of breast TICs in vivo. Accordingly, the effects of ATO and ATRA combination therapy on tumor initiation of TNBCs were assayed using a limiting dilution assay in mice, a standard approach to determine tumor initiation.

[4] = tested on: triple negative breast cancer PDX; assay: Triple negative breast cancer patient derived xenograft (PDX) mouse model; format: in vivo
Description: FIGS. 18A-D show the effect of ATO and ATRA on a triple negative breast cancer patient-derived xenograft (PDX) mouse model, where treatment was initiated two weeks after implantation. FIG. 18A is a graph showing that combination treatment with ATRA and ATO results in greater tumor growth inhibition than treatment with either ATRA or ATO, alone. FIG. 18B is image of the excised tumors corresponding to FIG. 18A. FIG. 18C is a graph depicting tumor volume corresponding to the tumors picture in FIG. 18B.
FIGS. 19A-C show the effect of ATO and ATRA on a triple negative breast cancer PDX mouse model, where treatment was initiated when the tumor volume reached to 250 mm^3. FIG. 19A is a graph showing that combination treatment with ATRA and ATO results in greater tumor growth inhibition than treatment with either ATRA or ATO, alone. FIG. 19B is image of the excised tumors corresponding to FIG. 19A. FIG. 19C is a graph depicting tumor volume corresponding to the tumors picture in FIG. 19B.
FIGS. 20A-D show the effect of ATO and ATRA on a triple negative breast cancer PDX mouse model, where treatment was initiated when the tumor volume reached to 300 mm^3. FIG. 20A is a graph showing that combination treatment with ATRA and ATO results in greater tumor growth inhibition than treatment with either ATRA or ATO, alone. FIG. 20B is image of the excised tumors corresponding to FIG. 20A. FIG. 20C is a graph depicting tumor volume corresponding to the tumors picture in FIG. 20B. FIG. 20D is a western blot depicting a decrease in Pin1 expression following treatment with either ATO, ATRA, or a combination of ATO and ATRA.
(§2) A PDX mouse model of triple negative breast cancer was treated with either ATO (2 mg/kg every other day), ATRA (5 mg 21 day slow releasing pellets), or a combination of both ATO (2 mg/kg every other day) and ATRA (5 mg 21 day slow releasing pellets). Treatment was initiated two weeks after implantation. Tumor growth was measured weekly for 7 weeks.
as §2, with “Furthermore, a PDX” for “A PDX”, “initiated when the tumor volume reached 250 mm^3.” for “initiated two weeks after implantation.”, “for 6” for “for 7”
as §2, with “Finally, a PDX” for “A PDX”, “initiated when the tumor volume reached 300 mm^3.” for “initiated two weeks after implantation.”, “for 6” for “for 7”, “weeks. […]” for “weeks.”

Hs578t and SUM159 cells = assay: FACS quantification of ALDH+ cells; format: cell-based, human
Description: (§3) FIG. 11 is a series of plots generated by fluorescence-activated cell sorting (FACS) and a corresponding graph that depicts the quantification of aldehyde dehydrogenase-positive (ALDH+) cells following treatment with ATRA, ATO, or a combination of ATRA and ATO. ALDH is tumor marker associated with breast cancer stem cells. The fraction of ALDH+ cells is decreased in Hs578T cells treated with ATRA+ATO, as compared to those treated with either ATRA or ATO, alone.
as §3, with “12” for “11”, “SUM159” for “Hs578T”
Two different human triple negative breast cancer cell lines (Hs578t and SUM159) were treated with ATRA, ATO, or a combination of ATRA and ATO. Fluorescence-activated cell sorting (FACS) was used to quantify the proportion of aldehyde dehydrogenase-positive (ALDH+) cells following treatment. […]

CC1=C(/C=C/C(C)=C/C=C/C(C)=C/C(=O)O)C(C)(C)CCC1 [ATRA, all-trans retinoic acid]
Pin1 levels (degradation) (Pin1): induced Pin1 degradation in a dose-dependent manner
Tumor growth [1]: inhibited tumor growth
Breast TIC-enriched CD24-CD44+ or ALDH+ population (231 and 159 cells): significantly reduced breast TIC-enriched population
Intracellular arsenic concentration [2]: increase intracellular arsenic concentrations relative to control
Mammosphere formation efficiency [3]: strongly impaired mammosphere formation efficiency at M2-3
Pin1 levels in tumors ([4]; treatment initiated at 300 mm^3): decreased
Tumor growth ([4]; treatment initiated two weeks after implantation, 7 weeks): inhibited tumor growth
Tumor growth ([4]; treatment initiated when tumor volume reached 250 mm^3, 6 weeks): inhibited tumor growth
Tumor growth ([4]; treatment initiated when tumor volume reached 300 mm^3, 6 weeks): inhibited tumor growth
Proportion of ALDH+ cells (Hs578t and SUM159 cells): decreased the proportion of ALDH+ cells
